We go through seven compounds from patent publication US5677296A, “Carbamic acid derivatives of substituted dibenzoxazepine compounds, pharmaceutical compositions and methods of use” (G.D. Searle & Co., priority 1995, dated 1997).

Structures are written as SMILES.

Assay [1] has as its system phenylbenzoquinone (PBQ)-induced writhing in mice. Kind of assay: Writhing Assay (PBQ-induced writhing in mice, analgesic activity). In kind it is in vivo, mouse (Charles River male albino mice). Conditions: i.g.; for Writhing assay: number of mice out of eight or ten in which test compound produced analgesia: 30 mpk, 30 min before PBQ i.p., fraction of mice. The source says:
The Writhing Assay is one of the most widely-used experimental procedures for measuring the analgesic activity of different narcotic and nonnarcotic analgesic agents, and involves the continuous, chemically-induced pain of visceral origin to an animal, such as a mouse or rat. [Gyires et al., Arch. int. Pharmacodyn, 267, 131-140 (1984); C. Vander Wende et al., Fed. Proc., 15, 494 (1956); Koster et al., Fed. Proc., 18, 412 (1959); and Witken et al., J. Pharmacol. exp. Ther., 133, 400-408 (1961).] Chemicals which may be used to induce this pain include phenylbenzoquinone (PBQ) and acetic acid. As a result of the chemical irritation to the animal, a characteristic stretching and writhing of the animal (dorsiflexion of the animal's back, extension of its hindlimbs and the strong contraction of its abdominal musculature) will generally occur. […] Drugs which reduce the number of writhes of the animal appear to restore the normal nociceptive threshold of the animal.
Charles River male albino mice, weighing 20 to 30 grams, were used in this assay.
Thirty minutes after intragastric administration to ten mice of 30 mg per kilogram of body weight of a compound of the present invention ("test compound"), […] per 10 g of body weight of a 0.025% w/v solution of PBQ was injected intraperitoneally into each mouse. Ten mice which were given saline in place of a test compound of the invention were used as a control group.
Five minutes later, each mouse was individually placed into a glass beaker for observation, and the number of writhes occurring during the following ten-minute period was counted.
A test compound was considered to have produced analgesia in a mouse if, in accordance with the conditions set forth above, and under the test criteria employed for this assay, after the administration of 30 mg per kilogram of body weight of a compound of the present invention to the mouse, the number of writhes elicited by a mouse injected with PBQ was equal to, or less than, one-half the median number of writhes recorded for the saline-treated control group of mice that day, as described by Taber in "Predictive Value of Analgesic Assays in Mice and Rats," Advances in Biochemical Psychopharmacology, 8, 191 (1974).
The results for the particular compounds of the present invention analyzed in this assay, and discussed in the examples identified below which correspond thereto, are presented in Table 1 hereinbelow as fractions under the heading "WRITHING ASSAY." The fractions indicate the number of mice out of eight or ten in which a test compound produced analgesia.
The standard initial screening dose of a test compound employed in this assay was 30 mpk […]. Generally, if this initial screening dose of the test compound produced analgesia in seven out of ten mice, then the effect of additional doses of the test compound on the writhing response was evaluated, and then the ED50 dose was generally calculated. (The slopes of the dose-response curves for all test compounds analyzed were compared as described by Tallarida and Murray, Manual of Pharmacologic Calculations, Page 11 (Springer Verlag, New York, 1981)).
All ED50 doses calculated are also presented in Table 1 hereinbelow under the heading "WRITHING ASSAY," but as whole numbers.
For orientation: In writhing tests, fewer writhes than in controls are read as antinociception.

Assay [2] relates to prostaglandin E2-induced contractions of guinea pig ileum. Kind of assay: Prostaglandin (PGE) Antagonism Assay (inhibition of prostaglandin E2-induced contractions of segments of guinea pig ileum). Conditions: for PGE2 antagonism in guinea pig ileum: Dose Ratio at 3 × 10^-6 M: test compound 3 × 10^-6 M, 30 min incubation, dose ratio of PGE2 EC50 values, average where more than one determined. How it is done: (b) Prostaglandin (PGE) Antagonism Assay
In order to determine the effectiveness of several of the compounds of the present invention ("test compounds") as prostaglandin E2 antagonists,a prostaglandin antagonism assay was conducted, as described below, to determine the ability of these compounds to inhibit prostaglandin E2 -induced contractions of segments of guinea pig ileum.
Male albino guinea pigs weighing 200 to 500 grams were sacrificed by cervical dislocation. The ilea were then quickly removed from the guinea pigs and placed in a modified Tyrode solution, a solution which is known to those skilled in the art, containing one-half of the usual amount of magnesium ions.
Segments of ileum about 2 cm long were then cut and mounted in a 10 mL tissue bath containing the modified Tyrode solution. The solution was maintained at 37° C. and aerated with a gaseous mixture of 95% oxygen and 5% carbon dioxide. Data for a control prostaglandin E2 dose response curve plotting concentration of prostaglandin E2 versus the intensity of contractions, detected isotonically, was then obtained by experimentally adjusting the dose of the prostaglandin E2 being injected into the tissue bath, in a manner known by those of skill in the art.
Solutions or suspensions containing an initial concentration (3 micromolar) of a test compound in modified Tyrode solution ("test solutions/suspensions") were then separately substituted for the control bath solution. Each test solution/suspension was then kept in constant contact with the ileum tissue, except for brief periods to drain the bath in preparation for rinsing with fresh test solution/suspension. A second prostaglandin E2 dose response curve was then generated for prostaglandin E2 in the presence of a test compound.
A control dose response curve is produced in isolated segments of guinea pig ileum mounted in an automated apparatus with six concentrations of prostaglandin E2. A solution or suspension of test compound is substituted for the control bathing solution and is incubated for thirty minutes. An additional prostaglandin E2 dose response curve is then performed in the presence of the test compound. A dose ratio is calculated from the EC50 values obtained from duplicate replications on each concentration of the test compound.
A dose ratio of EC50 doses was calculated from the results of each test in a manner known by those of skill in the art, and described above.
The dose ratios reported in Table 1 represent an average of multiple dose ratios for those compounds for which more than one dose ratio was determined. The compounds of the present invention which were tested in this assay, and for which results are presented in Table 1, correspond to the particular examples specified in Table 1.
The pA2 value (a statistical constant which is a common measure of expressing the potency of a particular drug as a competitive antagonist), rather than the dose ratio, was calculated for the test compound shown and described in Example 6 by schild plot calculations, as described by H. O. Schild, "pA, A New Scale for the Measurement of Drug Antagonism," Br. J. Pharmacol, 2, 189 (1947), and is reported in Table 1.

With `O=C1OC(c2ccccc2)C2c3ccccc3Oc3ccc(Cl)cc3N12` (single isomer, unassigned) [Compound 3, 6-chloro-1,13b-dihydro-1-phenyl-3H-dibenz[b,f]oxazolo-[3,4-d][1,4]oxazepin-3-one], the “Writhing assay: number of mice out of eight or ten in which test compound produced analgesia” value (shortened to “Writhing assay: number”) in assay [1] is 3/10. The “PGE2 antagonism in guinea pig ileum: Dose Ratio at 3 × 10^-6 M” value (“PGE2 antagonism … Dose Ratio at 3 × 10^-6 M” below) in assay [2] was determined as 43.6.

As for `O=C1OC(c2ccccc2)C2c3ccccc3Oc3ccc(Cl)cc3N12` (single isomer, unassigned) [Compound 4, 6-chloro-1,13b-dihydro-1-phenyl-3H-dibenz[b,f]oxazolo-[3,4-d][1,4]oxazepin-3-one], the “Writhing assay: number” value in assay [1] is on record as 3/10. Moreover, the “PGE2 antagonism … Dose Ratio at 3 × 10^-6 M” value in assay [2] is on record as 0.87.

With `O=C1OC(c2ccncc2)c2c(Cl)ccc3c2N1Cc1ccccc1O3` (stereo not drawn) [Compound 5, 4-chloro-3-(4-pyridyl)-1H,3H,12H-[3,1]-benzoxazino-[8,1-b,c][1,4]benzoxazepin-1-one], the “Writhing assay: number” value in assay [1] is reported as 10/10. Further, in assay [1] (Mus musculus, PBQ i.p., read-out: Writhing assay: ED50 Dose (I.G.)), the ED50 (usually the midpoint of the dose-response relation) came out at 3.7 mg/kg. Further, the “PGE2 antagonism … Dose Ratio at 3 × 10^-6 M” value in assay [2] is recorded as 10.93.

Turning to `O=C1O[C@@H](c2ccncc2)[C@H]2c3ccccc3Oc3ccc(Cl)cc3N12` [Compound 6a, (+)-trans-6-chloro-1,13b-dihydro-1-(4-pyridyl)-3H-dibenz[b,f]oxazolo[3,4-d][1,4]oxazepin-3-one], in assay [1] (30 mg/kg), the “Writhing assay: number” value is reported as 2/10. Also, the “PGE2 antagonism … Dose Ratio at 3 × 10^-6 M” value in assay [2] is 23.4.

On to `O=C1O[C@@H](c2ccncc2)[C@@H]2c3ccccc3Oc3ccc(Cl)cc3N12` (relative stereo) [Compound 6, trans-6-chloro-1,13b-dihydro-1-(4-pyridyl)-3H-dibenz-[b,f]oxazolo[3,4-d][1,4]oxazepin-3-one], for which, in assay [1], the “Writhing assay: number” value is reported as 5/10. Besides, in assay [2] (Schild plot), the “PGE2 antagonism in guinea pig ileum: PA2 Value” is reported as 7.15.

In the case of `O=C1OC(c2ccccn2)C2c3ccccc3Oc3ccc(Cl)cc3N12` (stereo not drawn) [Compound 10, 6-chloro-1,13b-dihydro-1-(2-pyridyl)-3H-dibenz-[b,f]oxazolo[3,4-d][1,4]oxazepin-3-one], the “Writhing assay: number” value in assay [1] was 1/10. In addition, the “PGE2 antagonism … Dose Ratio at 3 × 10^-6 M” value in assay [2] is 28.94.

Take `O=C1OC(c2ccccc2)c2c(Cl)ccc3c2N1Cc1ccccc1O3` (stereo not drawn) [Compound 2, 4-chloro-3-phenyl-1H,3H,12H-[3,1]-benzoxazino[8,1-b,c][1,4]benzoxazepin-1-one]: in assay [1], the “Writhing assay: number” value is 1/10. In assay [2], the “PGE2 antagonism … Dose Ratio at 3 × 10^-6 M” value was 29.2.
